The nature of data set [1]: CD in SUVs, ratio of ellipticities at 222 and 208 nm. In kind it is physicochemical. To be noted: peptide 8 μM, lipid 100 μM, phosphate buffer 5 mM pH 7.4, 25 °C, >1.0 indicates oligomeric helices. From the text:
TEXT PRINTED IN THE PICTURE: (c) 9: DOPG/CL mimicking Gram-positive membrane: θ222/ θ208: 1.7 | (c) 12: DOPG/CL mimicking Gram-positive membrane: θ222/ θ208: 2.6 | (c) 17: DOPG/CL mimicking Gram-positive membrane: θ222/ θ208: 1.9 | (f) 9: DOPE/DOPG/CL mimicking Gram-negative membrane: θ222/ θ208: 1.8 | (f) 12: DOPE/DOPG/CL mimicking Gram-negative membrane: θ222/ θ208: 2.1 | (f) 17: DOPE/DOPG/CL mimicking Gram-negative membrane: θ222/ θ208: 1.7
The ratio of the ellipticities at 222 and 208 nm was calculated to discriminate between monomeric and oligomeric states of helices.[64] As observed in our CD spectra, the ratio θ222/θ208 is always greater than 1.0 in both membranes, indicating an α-helical conformation in its oligomeric state (Figure 4c,f).
SUVs were prepared as reported: lipids (Gram-positive, DOPG/CL, 58/42 ratio in moles; Gram-negative DOPG/DOPE/CL, 63/23/12 ratio in moles) were dissolved in chloroform and an identical volume of peptide solution dissolved in TFE was added.[76] Then, the samples were vortexed and lyophilized overnight. CD spectra were recorded at a peptide concentration of 8 μM and at a lipid final concentration of 100 μM. […] CD spectra were recorded at 25 °C on a Jasco J-715 spectropolarimeter in a 1 cm quartz cell using three consecutive scans from 260 to 190 nm, 3 nm bandwidth, a time constant of 16 s, and a scan rate of 10 nm/min.

The test system of data set [2] is S. aureus MRSA ATCC 43300. The experiment in a line: In vitro time kill assay. In kind it is cell-based, Staphylococcus aureus. The note with it: 10^6 CFU/mL, peptide at the MIC (12.5 μM peptide 12; 25 μM peptide 9), 37 °C, CFU counts. The procedure:
Thus, 12 was further tested against S. aureus ATCC 43300, a methicillin-resistant strain (MRSA), and compared with the linear precursor 9. […] No growth was observed after 24 h. Peptide 9 was bactericidal as well, by killing MRSA within 10 min, but at a higher concentration (25 μM).
Figure 7 In vitro time kill assay. […] The inhibitory effect on bacterial growth was assessed by measuring the number of CFU obtained after the treatment.
The plates were incubated at 37 °C on an orbital shaker at 120 rpm. Viability assessments were performed at 10 min, 30 min, 1 h, 2 h, and 24 h by plating 0.01 mL of undiluted and 10-fold serially diluted samples onto Mueller–Hinton plates in triplicate. After overnight incubation at 37 °C, bacterial colonies were counted and compared with counts from control cultures.

For data set [3] the following is noted: 90% fresh human serum (male AB plasma), 37 ± 1 °C, peptide 0.2 mM, MeCN precipitation, RP-UHPLC peak area at 220 nm, triplicate.
Protocol: Peptides were incubated with 90% fresh human serum at 37 ± 1 °C within 12 h.[69] The percentage of intact peptide was monitored by calculating the peak area of the chromatogram from RP-HPLC analysis.
The peptide was incubated in a 1.5 mL eppendorf tube with human serum at a final concentration of 0.2 mM, and the mixture was incubated at 37 ± 1 °C for different periods (0.25, 0.75, 1.5, 2, 3, 4, 6, 7, 8, and 12 h). After the incubation period, an aliquot of reaction solution was taken and added MeCN (double volume respect to the aliquot) for the precipitation of serum proteins present in human serum. The produced cloudy solution was cooled (4 °C) for 15 min and then centrifuged at 13 000 rpm for 10 min to remove the serum protein as pellet. Then, the supernatant was analyzed by RP-UHPLC using a linear elution gradient from 10 to 90% MeCN (0.1% TFA) in water (0.1% TFA) over 20 min. A flow rate of 1 mL/min was employed, and the absorbance of the eluting peaks was detected at 220 nm. The proteolytic stability assay was repeated in triplicate.

The results in this text go back to paper PMC8389922, “First-in-Class Cyclic Temporin L Analogue: Design, Synthesis, and Antimicrobial Assessment” (Journal of Medicinal Chemistry, 2021).

Bridge positions count the residues as written; N and C are the ends. Square brackets hold non-standard residues; d marks the D form. Peptide text beside a SMILES is read from it.

For the compound `CC[C@H](C)[C@H](NC(=O)[C@H](CCCNC(=N)N)NC(=O)[C@@H]1CCCCn2cc(nn2)C[C@H](NC(=O)[C@H](Cc2ccccc2)NC(=O)[C@H](Cc2c[nH]c3ccccc23)NC(=O)[C@@H]2CCCN2C(=O)[C@@H](NC(=O)[C@@H](N)Cc2ccccc2)C(C)C)C(=O)N[C@@H](CCCCN)C(=O)N[C@@H](Cc2ccccc2)C(=O)NC(CC(C)C)C(=O)N1)C(=O)N[C@@H](CC(C)C)C(N)=O` (stereo in doubt) [compound 17], the θ222/θ208 in data set [1] (CD in DOPE/DOPG/CL SUVs) is reported as 1.7; in data set [1] (CD in DOPG/CL SUVs), 1.9.
As to `CC[C@H](C)[C@H](NC(=O)[C@H](CCCNC(=N)N)NC(=O)[C@@H]1CCC(=O)NCCCC[C@H](NC(=O)[C@H](Cc2ccccc2)NC(=O)[C@H](Cc2c[nH]c3ccccc23)NC(=O)[C@@H]2CCCN2C(=O)[C@@H](NC(=O)[C@@H](N)Cc2ccccc2)C(C)C)C(=O)N[C@@H](CCCCN)C(=O)N[C@@H](Cc2ccccc2)C(=O)N[C@H](CC(C)C)C(=O)N1)C(=O)N[C@@H](CC(C)C)C(N)=O` [compound 12] (H-FVPWFKKF[dL]ERIL-NH2; lactam 6-10), in data set [2], the “time within which the MRSA strain was killed” value is at most 30 min. In data set [3], the “time to complete degradation in human serum” value came to 12 h.
